Data published in patent US6716833B2, “Acetylenic α-amino acid-based sulfonamide hydroxamic acid tace inhibitors” (priority 1999, dated 2004).

Target: TNF-α converting enzyme (TACE) (Homo sapiens, UniProt P78536)
Assay: TACE inhibition (fluorescent peptidyl substrate)
Format: biochemical
Settings: 1 uM; Table 15

Chain of TNF-α converting enzyme (TACE) (P78536 215-824, species assumed): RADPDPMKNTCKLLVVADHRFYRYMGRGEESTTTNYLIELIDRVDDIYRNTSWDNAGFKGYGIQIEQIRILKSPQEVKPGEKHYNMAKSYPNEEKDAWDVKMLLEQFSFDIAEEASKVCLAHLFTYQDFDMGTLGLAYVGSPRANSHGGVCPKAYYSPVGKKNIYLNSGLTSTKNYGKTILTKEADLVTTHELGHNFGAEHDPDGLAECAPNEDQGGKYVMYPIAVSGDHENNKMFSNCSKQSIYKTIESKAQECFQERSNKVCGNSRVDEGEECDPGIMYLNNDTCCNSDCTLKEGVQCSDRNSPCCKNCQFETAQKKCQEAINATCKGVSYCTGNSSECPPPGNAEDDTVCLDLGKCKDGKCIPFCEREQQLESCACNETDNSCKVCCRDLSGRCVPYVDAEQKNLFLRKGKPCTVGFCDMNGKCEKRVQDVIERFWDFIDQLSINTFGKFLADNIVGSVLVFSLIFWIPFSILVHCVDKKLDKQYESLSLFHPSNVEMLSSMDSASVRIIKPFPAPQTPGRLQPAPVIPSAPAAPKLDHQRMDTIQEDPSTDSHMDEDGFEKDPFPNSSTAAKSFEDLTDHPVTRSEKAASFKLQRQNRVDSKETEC

% Inhibition at 1 uM (In Vitro Inhibition of TACE) [%]	SMILES
38.2	CC#CCOc1ccc(S(=O)(=O)NC(Cc2ccccc2)C(=O)NO)cc1 (stereo not shown) [Example 94]
22	CC#CCOc1ccc(S(=O)(=O)NC(CSCNC(C)=O)C(=O)NO)cc1 (stereo not shown) [Example 96]
2.5	CC#CCOc1ccc(S(=O)(=O)NC(CO)C(=O)NO)cc1 (stereo not shown) [Example 98]
28.5	CC#CCOc1ccc(S(=O)(=O)NC(C(=O)NO)C(C)OCc2ccccc2)cc1 (stereo not shown) [Example 99]
15.4	CC#CCOc1ccc(S(=O)(=O)NC(C(=O)NO)C(C)O)cc1 (stereo not shown) [Example 100]
30.2	CC#CCOc1ccc(S(=O)(=O)NC(Cc2c[nH]c3ccccc23)C(=O)NO)cc1 (stereo not shown) [Example 101]
27.3	CC#CCOc1ccc(S(=O)(=O)NC(Cc2ccc(O)cc2)C(=O)NO)cc1 (stereo not shown) [Example 102]
52.8	CC#CCOc1ccc(S(=O)(=O)NC(Cc2ccc(OCc3ccccc3)cc2)C(=O)NO)cc1 (stereo not shown) [Example 103]

SMILES	% Inhibition at 1 uM (In Vitro Inhibition of TACE) [%]
CC#CCOc1ccc(S(=O)(=O)NC(C(=O)NO)C(C)C)cc1 (stereo not shown) [Example 104]	38.5

Same assay, conditions: IC 50 nM (In Vitro Inhibition of TACE), Table 15

IC50 [nM]	SMILES
490 ± 139	CC#CCOc1ccc(S(=O)(=O)N[C@@H](CCCCN)C(=O)NO)cc1 [Example 92]
546	CC#CCOc1ccc(S(=O)(=O)N[C@@H](CCCC)C(=O)NO)cc1 [Example 93]
120	CC#CCOc1ccc(S(=O)(=O)N[C@H](C(=O)NO)c2ccccc2)cc1 [Example 95]
283 ± 42	CC#CCOc1ccc(S(=O)(=O)N[C@@H](COCc2ccccc2)C(=O)NO)cc1 [Example 97]
29.3	CC#CCOc1ccc(S(=O)(=O)N[C@H](CCCNC(=N)NS(=O)(=O)c2c(C)cc(OC)c(C)c2C)C(=O)NO)cc1 [Example 295]
10.9	CC#CCOc1ccc(S(=O)(=O)N[C@H](CCCNC(=N)N)C(=O)NO)cc1 [Example 296, (2R)-2-(4-But-2-ynyloxy-benzenesulfonylamino)-5-guanidino-pentanoic acid hydroxyamide]
10.9	CC#CCOc1ccc(S(=O)(=O)N[C@H](CCCNC(=N)NS(=O)(=O)c2ccc(C)cc2)C(=O)NO)cc1 [Example 297, (2R)-2-({[4-(2-Butynyloxy)phenyl]sulfonyl}amino)-N-hydroxy-5-[(imino{[(4-methylphenyl)sulfonyl]amino}methyl)amino]pentanamide]
10.4	CC#CCOc1ccc(S(=O)(=O)N[C@H](CSC(C)(C)C)C(=O)NO)cc1 [Example 299, (2S)-3-(tert-Butylthio)-2-({[4-(but-2-ynyloxy)phenyl]sulfonyl}amino)-N-hydroxypropanamide]
11	CC#CCOc1ccc(S(=O)(=O)N[C@H](CSCNC(C)=O)C(=O)NO)cc1 [Example 300, (2S)-3-{[(Acetylamino)methyl]thio}-2-({[4-(but-2-ynyloxy)phenyl]sulfonyl}amino)-N-hydroxypropanamide]
24.6	CC#CCOc1ccc(S(=O)(=O)N[C@H](CSCc2ccc(C)cc2)C(=O)NO)cc1 [Example 301, (2S)-2-({[4-(But-2-ynyloxy)phenyl]sulfonyl}amino)-N-hydroxy-3-[(4-methylbenzyl)thio]propanamide]
27.4	CC#CCOc1ccc(S(=O)(=O)N[C@H](CCC(N)=O)C(=O)NO)cc1 [Example 303, (2R)-2-({[4-(But-2-ynyloxy)phenyl]sulfonyl}amino)-N-hydroxypentanediamide]
28.9	CC#CCOc1ccc(S(=O)(=O)N[C@H](CCC(=O)O)C(=O)NO)cc1 [Example 304, (4R)-4-({[4-(But-2-ynyloxy)phenyl]sulfonyl}amino)-5-(hydroxyamino)-5-oxopentanoic acid]
13.4	CC#CCOc1ccc(S(=O)(=O)N[C@H](CCc2ccccc2)C(=O)NO)cc1 [Example 305, (2R)-2-({[4-(But-2-ynyloxy)phenyl]sulfonyl}amino)-N-hydroxy-4-phenylbutanamide]
8.7	CC#CCOc1ccc(S(=O)(=O)N[C@H](Cc2cnc[nH]2)C(=O)NO)cc1 [Example 306, (2R)-2-({[4-(But-2-ynyloxy)phenyl]sulfonyl}amino)-N-hydroxy-3-(1H-imidazol-5-yl)propanamide]
29.4	CC#CCOc1ccc(S(=O)(=O)N2C[C@@H](O)C[C@@H]2C(=O)NO)cc1 [Example 307, (2R,4S)-1-{[4-(But-2-ynyloxy)phenyl]sulfonyl}-N,4-dihydroxypyrrolidine-2-carboxamide]
29.5	CC#CCOc1ccc(S(=O)(=O)N[C@H](CCCCN)C(=O)NO)cc1 [Example 308, (2R)-6-Amino-2-({[4-(but-2-ynyloxy)phenyl]sulfonyl}amino)-N-hydroxyhexanamide]
11.4	CC#CCOc1ccc(S(=O)(=O)N[C@H](CCCCNC(=O)OCc2ccccc2)C(=O)NO)cc1 [Example 309, Benzyl(5R)-5-({[4-(but-2-ynyloxy)phenyl]sulfonyl}amino)-6-(hydroxyamino)-6-oxohexylcarbamate]
27.9	CC#CCOc1ccc(S(=O)(=O)N[C@H](Cc2cccc3ccccc23)C(=O)NO)cc1 [Example 310, (2R)-2-({[4-(But-2-ynyloxy)phenyl]sulfonyl}amino)-N-hydroxy-3-(1-naphthyl)propanamide]

IC50 [nM]	SMILES
15.7	CC#CCOc1ccc(S(=O)(=O)N[C@H](Cc2ccc3ccccc3c2)C(=O)NO)cc1 [Example 311, (2R)-2-({[4-(But-2-ynyloxy)phenyl]sulfonyl}amino)-N-hydroxy-3-(2-naphthyl)propanamide]
4.7	CC#CCOc1ccc(S(=O)(=O)N[C@H](CCCC)C(=O)NO)cc1 [Example 312, (2R)-2-({[4-(But-2-ynyloxy)phenyl]sulfonyl}amino)-N-hydroxyhexanamide]
6.3	CC#CCOc1ccc(S(=O)(=O)N[C@H](CCC)C(=O)NO)cc1 [Example 313, (2R)-2-({[4-(But-2-ynyloxy)phenyl]sulfonyl}amino)-N-hydroxypentanamide]
25	CC#CCOc1ccc(S(=O)(=O)N[C@H](CCCN)C(=O)NO)cc1 [Example 314, (2R)-5-Amino-2-({[4-(but-2-ynyloxy)phenyl]sulfonyl}amino)-N-hydroxypentanamide]
4	CC#CCOc1ccc(S(=O)(=O)N[C@H](Cc2ccc(F)cc2)C(=O)NO)cc1 [Example 316, (2R)-2-({[4-(But-2-ynyloxy)phenyl]sulfonyl}amino)-3-(4-fluorophenyl)-N-hydroxypropanamide]
6.5	CC#CCOc1ccc(S(=O)(=O)N[C@H](Cc2ccc([N+](=O)[O-])cc2)C(=O)NO)cc1 [Example 317, (2R)-2-({[4-(But-2-ynyloxy)phenyl]sulfonyl}amino)-N-hydroxy-3-(4-nitrophenyl)propanamide]
11.9	CC#CCOc1ccc(S(=O)(=O)N2CCCC[C@@H]2C(=O)NO)cc1 [Example 318, (2R)-1-{[4-(But-2-ynyloxy)phenyl]sulfonyl}-N-hydroxypiperidine-2-carboxamide]
10.5	CC#CCOc1ccc(S(=O)(=O)N[C@H](CO)C(=O)NO)cc1 [Example 319, (2R)-2-({[4-(But-2-ynyloxy)phenyl]sulfonyl}amino)-N,3-dihydroxypropanamide]
7.4	CC#CCOc1ccc(S(=O)(=O)N[C@H](COCc2ccccc2)C(=O)NO)cc1 [Example 320, (2R)-3-(Benzyloxy)-2-({[4-(but-2-ynyloxy)phenyl]sulfonyl}amino)-N-hydroxypropanamide]
4.7	CC#CCOc1ccc(S(=O)(=O)N[C@H](Cc2cccs2)C(=O)NO)cc1 [Example 321, (2R)-2-({[4-(But-2-ynyloxy)phenyl]sulfonyl}amino)-N-hydroxy-3-thien-2-yl-propanamide]
11.8	CC#CCOc1ccc(S(=O)(=O)N[C@@H](C(=O)NO)[C@H](C)O)cc1 [Example 322, (2R,3S)-2-({[4-(But-2-ynyloxy)phenyl]sulfonyl}amino)-N,3-dihydroxybutanamide]
17.6	CC#CCOc1ccc(S(=O)(=O)N[C@@H](C(=O)NO)[C@H](C)OCc2ccccc2)cc1 [Example 323, (2R,3S)-3-(Benzyloxy)-2-({[4-(but-2-ynyloxy)phenyl]sulfonyl}amino)-N-hydroxybutanamide]
14.7	CC#CCOc1ccc(S(=O)(=O)N2CSC[C@@H]2C(=O)NO)cc1 [Example 324, (4S)-3-{[4-(But-2-ynyloxy)phenyl]sulfonyl}-N-hydroxy-1,3-thiazolidine-4-carboxamide]
6.9	CC#CCOc1ccc(S(=O)(=O)N2Cc3ccccc3C[C@@H]2C(=O)NO)cc1 [Example 325, (3R)-2-{[4-(But-2-ynyloxy)phenyl]sulfonyl}-N-hydroxy-1,2,3,4-tetrahydroisoquinoline-3-carboxamide]
58.6	CC#CCOc1ccc(S(=O)(=O)N[C@H](Cc2ccc(OCc3ccccc3)cc2)C(=O)NO)cc1 [Example 326, (2R)-3-[4-(Benzyloxy)phenyl]-2-({[4-(but-2-ynyloxy)phenyl]sulfonyl}amino)-N-hydroxypropanamide]
5.5	CC#CCOc1ccc(S(=O)(=O)N[C@@H](C(=O)NO)c2ccccc2)cc1 [Example 327, (2R)-2-({[4-(But-2-ynyloxy)phenyl]sulfonyl}amino)-N-hydroxy-2-phenylethanamide]
6.26	CC#CCOc1ccc(S(=O)(=O)N[C@H](CCCNC(C)=O)C(=O)NO)cc1 [Example 328, (2R)-5-(Acetylamino)-2-({[4-(but-2-ynyloxy)phenyl]sulfonyl}amino)-N-hydroxypentanamide]
6.88	CC#CCOc1ccc(S(=O)(=O)N[C@H](CCCNC(=O)c2ccc3[nH]cnc3c2)C(=O)NO)cc1 [Example 329, N-[(4R)-4-({[4-(But-2-ynyloxy)phenyl]sulfonyl}amino)-5-(hydroxyamino)-5-oxopentyl]-1H-benzimidazole-5-carboxamide]

Same assay, conditions: read-out: IC 50 nM (In Vitro Inhibition of TACE); Table 15

IC50 [nM]	SMILES
5.7	CC#CCOc1ccc(S(=O)(=O)N[C@H](Cc2ccc(F)c(F)c2)C(=O)NO)cc1 [Example 315, (2R)-2-({[4-(But-2-ynyloxy)phenyl]sulfonyl}amino)-3-(3,4-digluorophenyl)-N-hydroxypropanamide]
